Several values for one entry are separate records, joined by “and”; a condition that tells them apart may be missing. Identical values can stand only once.
Legend:
Assay type in all cases: cell-based
[1] = test system: Staphylococcus aureus; assay: Suppression of metabolite 4-methylhexanoic acid from 14-methylhexadecanoic acid
Experimental: After culture on fabric prepared in the same manner as in the above (1), 3 ml of methanol was added, and extraction was carried out under ultrasonic irradiation for 30 minutes (20° C.). The extraction liquid was mixed with (a 1000 ppm methanol solution of) an ADAM reagent of Funakoshi Co., Ltd. at 1:1 (volume ratio) and left overnight under room temperature and dark place conditions. After that, 4-methyl-3-hexenoic acid as a metabolite from 14-methylhexadecanoic acid was quantified by HPLC. The quantification conditions are as follows.
(§1) The production amount of 4-methyl-3-hexenoic acid after culture on the fabric to which each metabolism controlling agent was added was quantified, and the ratio of the production amount to that of 4-methyl-3-hexenoic acid in the case of adding no metabolism controlling agent (control) was calculated as a metabolite suppression rate (%). The higher a numerical value thereof is, the more the metabolism is suppressed. Note that the metabolite suppression rate was determined by the following formula:
Metabolite suppression rate(%)=100×[(D−C)/D] • C: production amount of metabolite of example or comparative example (μg/fabric g) • D: production amount of metabolite of control (μg/fabric g)
(§2) The metabolism of 14-methylhexadecanoic acid by bacteria of the genus Staphylococcus (Staphylococcus aureus) was tested in the same manner as in example 1.
(§3) In this example, Staphylococcus aureus (strain isolated from clothing) was used as a microorganism.
(§4) Further, in this example, a bacterial suspension of 10^7 (CFU/ml) prepared by using an NB liquid medium diluted to 1/10 with ion exchange water was used as a bacterial suspension.
Further, in this example, 4-methylhexanoic acid was quantified as a metabolite from 14-methylhexadecanoic acid, and the metabolite suppression rate was determined in the same manner as in example 1.
Note that, in this example, C12OH (1-dodecanol) was used as the metabolism controlling agent.

[2] = test system: Rhodotorula mucilaginosa; assay: as above
Experimental: The extraction liquid was mixed with (a 1000 ppm methanol solution of) an ADAM reagent of Funakoshi Co., Ltd. at 1:1 (volume ratio) and left overnight under room temperature and dark place conditions. […] The quantification conditions are as follows. […] The higher a numerical value thereof is, the more the metabolism is suppressed. Note that the metabolite suppression rate was determined by the following formula: […] In this example, Rhodotorula mucilaginosa (strain isolated from clothing) was used as a microorganism. Further, in this example, the bacteria were precultured under conditions of a PDA agar medium (Difco), 30° C.; and 48 hours. Further, in this example, a bacterial suspension of 10^7 (CFU/ml) prepared by using a PDB liquid medium (Difco) diluted to 1/10 with ion exchange water was used as a bacterial suspension.

[3] = test system: Staphylococcus aureus; assay: Suppression of metabolism of 14-methylhexadecanoic acid on cotton fabric; details: agent 250 μg/fabric g
Experimental: A methanol solution in which 14-methylhexadecanoic acid (SIGMA-ALDRICH) was dissolved was added dropwise to 3 cm×3 cm pieces of sterilized plain-weave cotton fabric to make it adhered to the fabric. The adhesion amount of 14-methylhexadecanoic acid was set to 10 μg per piece of the plain-weave cotton fabric (100 μg/fabric g).
Further, a methanol solution in which each metabolism controlling agent was dissolved was prepared and added dropwise to the fabric to which 14-methylhexadecanoic acid adhered, and it was thereafter dried for an hour. This fabric was placed in a sterilized screw tube bottle No. 3 (Maruemu Corporation) and 100 μl of the bacterial suspension was inoculated thereto, and culture was carried out under 37° C.; conditions for 21 hours.
3 ml of methanol was added to the screw tube bottle after culture, and extraction was carried out under ultrasonic irradiation for 30 minutes (20° C.). The extraction liquid was mixed with a (trimethylsilyl)diazomethane hexane solution (FUJIFILM Wako Pure Chemical Corporation) at 9:1 (volume ratio) and left overnight under room temperature and dark place conditions. After that, 14-methylhexadecanoic acid remaining on the fabric was quantified by GC. The quantification conditions for GC are as follows. • GC: Agilent 7890A • GC column: Agilent DB-1 30 m×250 μm×0.25 μm • Temperature rise condition: 50° C. (held for 3 minutes)-(10° C./min)-300° C. (held for 5 minutes) • Sample injection volume: 1 μl • Split ratio: 1:12 • Detector: FID
as §1, with “residual” for “production”, “14-methylhexadecanoic” for “4-methyl-3-hexenoic”, “the” for “each”, “metabolism” for “metabolite”
Metabolism suppression rate(%)=[1−(100−A)/(100−B)]×100 • A: residual amount of 14-methylhexadecanoic acid of example or comparative example (μg/fabric g) • B: residual amount of 14-methylhexadecanoic acid of control (μg/fabric g)
as §2, §3, §4

Question: CCCCCCCCCCCCO [Example C12OH, 1-dodecanol] was tested. Which “Metabolite suppression rate (%)” value ([1]; agent 100 μg/fabric g) did it give?
Answer: The value was 10.00%.

Question: What about the “Metabolite suppression rate (%)” value ([1]; agent 250 μg/fabric g) of the same molecule?
Answer: The value was 74% and 64.10%.

Question: What about the “Metabolite suppression rate (%)” value ([1]; agent 500 μg/fabric g) of the same molecule?
Answer: Its value is 93.20%.

Question: What about the “Metabolite suppression rate (%)” value ([2]; agent 250 μg/fabric g) of the same molecule?
Answer: Its value is 62% and 72.50%.

Question: What about the “Metabolite suppression rate (%)” value ([2]; agent 500 μg/fabric g) of the same molecule?
Answer: The value was 65.80%.

Question: And the “Metabolite suppression rate (%)” value ([2]; agent 1000 μg/fabric g)?
Answer: Its value is 82.20%.

Question: And the “Metabolism suppression rate (%)” value [3]?
Answer: Its value is 75%.
